Patent US12624044B2, “SMARCA degraders and uses thereof” (Kymera Therapeutics, Inc., priority 2019, dated 2026)

Legend:
Assay type in all cases: cell-based
SMARCA2 [1] = target: T1, SMARCA2 (Homo sapiens, UniProt P51531); experiment: SMARCA2 Western blot MV4-11 degradation; conditions: for Dmax: MV4-11, MV4-11 cells, read-out: SMARCA2 WB MV411 degradation 24 h: Average Dmax %; for Dmax / DC50: 24 h; for DC50 / SMARCA2 WB MV411 degradation 24 h: Average Dmax %: MV4-11 cells; for DC50: read-out: SMARCA2 WB MV411 degradation 24 h: Average external-Abs DC50
Procedure: Cells were seeded into 6-well plates (MV4-11: 4×10^6 cells/well/1 ml) and 1 ml of 2× compound solution was added into the well to make the final concentration and the plates were mixed well and incubated for 24 hours (No cytotoxicity was observed). The cell were collected with media and spun at 3000 rpm for 5 minutes. The supernatant was aspirated and the well and the cells were washed with cold PBS once and combined for centrifugation again; the supernatant aspirated again. 200 ul pre-chilled RIPAlysis buffer (Boston BioProducts BP-115D) with protease/phosphatase inhibitor (Roche 05892791001/Roche 04906837001) was directly added into the tube to lyze the cells for 20 minutes on ice. The cell lysate were collected into EP tubes and spun at 13000 rpm for 20 minutes and 72 ul supernatant was transferred to a fresh EP tube containing 18 ul of 5× loading buffer (Beyotime Bio P0015) to make the loading samples. The samples were heated to 100° C. for 10 minutes and cooled to RT and microcentrifuged. 20 ul of samples were loaded onto SDS-PAGE gel (Novex, WG1402BOX) and the gel was run at 80 V for 20 minutes and 120 V for 1.5 hours. The samples were electrotransfer to a NC membrane using wet-transfer method with 250 mA for 2.5 hours. The membrane was blocked with LICOR blocking buffer (LI-COR, 927-50000) for 1 hour. The membrane was washed three times with TBST (CST #9997S), 5 minutes each. Incubation was performed with primary antibody prepared in blocking buffer with 0.1% Tween-20 (Solarbio, P8220) at 4° C. overnight (Anti-SMARCA2/BRM antibody (ab15597) 1:500; Anti-BRG1 antibody [EPR3912] (ab108318) 1:1000; Rabbit anti-Baf180 antibody [EPR15860] (Abcam, ab196022) 1:1000; mouse anti-beta-Actin (8H10D10) (CST #3700) 1:10000). The membrane was washed three times with TBST, 5 minutes each. Incubation with secondary antibody was performed for 1 hour at RT (anti-rabbit IgG (Licor, 926-32211) 1:5000; anti-mouse IgG (LI-COR, 926-68070) 1:5000). The membrane was washed three times with TBST, 5 minutes each and lastly the LiCOR was read.
The letter codes for the percentage of SMARCA degradation after 24 hours (Dmax %) include: A (>90% degradation), B (>70-90% degradation), C (50-70% degradation), and D (<50% degradation).

SMARCA4 = target: T2, SMARCA4 (Homo sapiens, UniProt P51532); experiment: SMARCA4 Western blot MV4-11 degradation; conditions: for Dmax: MV4-11, MV4-11 cells, read-out: SMARCA4 WB MV411 degradation 24 h: Average Dmax %; for Dmax / DC50: 24 h; for DC50 / SMARCA4 WB MV411 degradation 24 h: Average Dmax %: MV4-11 cells; for DC50: read-out: SMARCA4 WB MV411 degradation 24 h: Average external-Abs DC50
T2 construct: SMARCA2 and SMARCA4 protein degradation in MV4-11 cells; endogenous in cells; host or cells: MV4-11
How it was run: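 MV4-11 cells treated with compound for 24 h, lysed in RIPA with protease/phosphatase inhibitors, and SMARCA2 and SMARCA4 (BRG1) levels assessed by Western blot with β-actin loading control and LI-COR fluorescent read-out. Maximal degradation (Dmax %) after 24 h binned into letter codes.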

SMARCA2 [2] = target: T1, SMARCA2; experiment: MSD SMARCA2 degradation in A549 cell line; conditions: for Dmax: A549, A549 cells; for Dmax / DC50: 24 h; for DC50 / SMARCA2 MSD A549 degradation 24 h: Average Dmax %: A549 cells; for DC50: read-out: SMARCA2 MSD A549 degradation 24 h: Average external-Abs DC50
How it was run: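 SMARCA2 remaining was measured by MSD electrochemiluminescence on RIPA lysates (anti-SMARCA2 plus SULFO-TAG anti-rabbit). Prior exposure: 24 h of A549 cells to a 10-point, 3-fold dilution series topping at 1000 nM final; Dmax % given as graded codes.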

T1 sequence (P51531 whole entry): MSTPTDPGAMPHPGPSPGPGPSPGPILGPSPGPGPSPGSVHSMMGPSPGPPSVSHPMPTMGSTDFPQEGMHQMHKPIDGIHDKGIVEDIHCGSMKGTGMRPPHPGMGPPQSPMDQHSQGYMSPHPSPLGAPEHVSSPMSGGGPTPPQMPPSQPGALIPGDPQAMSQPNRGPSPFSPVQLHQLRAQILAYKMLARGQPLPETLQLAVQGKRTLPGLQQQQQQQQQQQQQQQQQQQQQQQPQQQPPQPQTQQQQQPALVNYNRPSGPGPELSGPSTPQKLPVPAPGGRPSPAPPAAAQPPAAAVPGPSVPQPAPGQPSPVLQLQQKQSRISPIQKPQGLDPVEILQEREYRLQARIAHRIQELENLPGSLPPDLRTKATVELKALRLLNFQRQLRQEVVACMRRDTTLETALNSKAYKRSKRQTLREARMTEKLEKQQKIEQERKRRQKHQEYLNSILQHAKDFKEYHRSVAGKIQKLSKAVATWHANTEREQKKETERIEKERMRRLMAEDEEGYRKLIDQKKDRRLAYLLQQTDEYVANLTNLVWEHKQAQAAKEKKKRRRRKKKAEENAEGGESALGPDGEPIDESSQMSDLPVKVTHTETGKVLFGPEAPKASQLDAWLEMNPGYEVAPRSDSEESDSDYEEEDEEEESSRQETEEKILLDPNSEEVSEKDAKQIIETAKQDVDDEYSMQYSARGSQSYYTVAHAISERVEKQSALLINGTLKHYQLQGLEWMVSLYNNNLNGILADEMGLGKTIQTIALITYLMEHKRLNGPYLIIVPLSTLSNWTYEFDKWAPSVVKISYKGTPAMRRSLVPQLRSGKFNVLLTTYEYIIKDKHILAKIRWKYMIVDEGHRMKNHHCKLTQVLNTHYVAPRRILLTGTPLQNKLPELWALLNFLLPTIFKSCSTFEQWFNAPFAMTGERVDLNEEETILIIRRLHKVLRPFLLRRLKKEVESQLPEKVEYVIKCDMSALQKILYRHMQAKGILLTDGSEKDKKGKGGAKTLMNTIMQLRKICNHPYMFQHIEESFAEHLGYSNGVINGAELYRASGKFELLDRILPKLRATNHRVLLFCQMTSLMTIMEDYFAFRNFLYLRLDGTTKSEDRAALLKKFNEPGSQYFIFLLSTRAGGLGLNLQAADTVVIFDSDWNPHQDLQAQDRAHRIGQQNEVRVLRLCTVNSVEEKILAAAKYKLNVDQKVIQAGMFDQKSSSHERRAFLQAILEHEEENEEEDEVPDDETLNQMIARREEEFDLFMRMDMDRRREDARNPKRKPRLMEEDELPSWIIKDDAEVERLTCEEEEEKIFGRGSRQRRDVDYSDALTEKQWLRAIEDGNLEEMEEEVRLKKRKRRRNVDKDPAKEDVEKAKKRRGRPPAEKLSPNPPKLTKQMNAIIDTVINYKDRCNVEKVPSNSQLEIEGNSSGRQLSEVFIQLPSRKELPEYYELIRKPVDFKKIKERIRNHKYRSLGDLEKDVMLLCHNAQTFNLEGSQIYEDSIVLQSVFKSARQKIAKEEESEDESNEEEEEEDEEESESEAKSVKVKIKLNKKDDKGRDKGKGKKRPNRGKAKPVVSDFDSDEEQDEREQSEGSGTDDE
T2 sequence (P51532 whole entry): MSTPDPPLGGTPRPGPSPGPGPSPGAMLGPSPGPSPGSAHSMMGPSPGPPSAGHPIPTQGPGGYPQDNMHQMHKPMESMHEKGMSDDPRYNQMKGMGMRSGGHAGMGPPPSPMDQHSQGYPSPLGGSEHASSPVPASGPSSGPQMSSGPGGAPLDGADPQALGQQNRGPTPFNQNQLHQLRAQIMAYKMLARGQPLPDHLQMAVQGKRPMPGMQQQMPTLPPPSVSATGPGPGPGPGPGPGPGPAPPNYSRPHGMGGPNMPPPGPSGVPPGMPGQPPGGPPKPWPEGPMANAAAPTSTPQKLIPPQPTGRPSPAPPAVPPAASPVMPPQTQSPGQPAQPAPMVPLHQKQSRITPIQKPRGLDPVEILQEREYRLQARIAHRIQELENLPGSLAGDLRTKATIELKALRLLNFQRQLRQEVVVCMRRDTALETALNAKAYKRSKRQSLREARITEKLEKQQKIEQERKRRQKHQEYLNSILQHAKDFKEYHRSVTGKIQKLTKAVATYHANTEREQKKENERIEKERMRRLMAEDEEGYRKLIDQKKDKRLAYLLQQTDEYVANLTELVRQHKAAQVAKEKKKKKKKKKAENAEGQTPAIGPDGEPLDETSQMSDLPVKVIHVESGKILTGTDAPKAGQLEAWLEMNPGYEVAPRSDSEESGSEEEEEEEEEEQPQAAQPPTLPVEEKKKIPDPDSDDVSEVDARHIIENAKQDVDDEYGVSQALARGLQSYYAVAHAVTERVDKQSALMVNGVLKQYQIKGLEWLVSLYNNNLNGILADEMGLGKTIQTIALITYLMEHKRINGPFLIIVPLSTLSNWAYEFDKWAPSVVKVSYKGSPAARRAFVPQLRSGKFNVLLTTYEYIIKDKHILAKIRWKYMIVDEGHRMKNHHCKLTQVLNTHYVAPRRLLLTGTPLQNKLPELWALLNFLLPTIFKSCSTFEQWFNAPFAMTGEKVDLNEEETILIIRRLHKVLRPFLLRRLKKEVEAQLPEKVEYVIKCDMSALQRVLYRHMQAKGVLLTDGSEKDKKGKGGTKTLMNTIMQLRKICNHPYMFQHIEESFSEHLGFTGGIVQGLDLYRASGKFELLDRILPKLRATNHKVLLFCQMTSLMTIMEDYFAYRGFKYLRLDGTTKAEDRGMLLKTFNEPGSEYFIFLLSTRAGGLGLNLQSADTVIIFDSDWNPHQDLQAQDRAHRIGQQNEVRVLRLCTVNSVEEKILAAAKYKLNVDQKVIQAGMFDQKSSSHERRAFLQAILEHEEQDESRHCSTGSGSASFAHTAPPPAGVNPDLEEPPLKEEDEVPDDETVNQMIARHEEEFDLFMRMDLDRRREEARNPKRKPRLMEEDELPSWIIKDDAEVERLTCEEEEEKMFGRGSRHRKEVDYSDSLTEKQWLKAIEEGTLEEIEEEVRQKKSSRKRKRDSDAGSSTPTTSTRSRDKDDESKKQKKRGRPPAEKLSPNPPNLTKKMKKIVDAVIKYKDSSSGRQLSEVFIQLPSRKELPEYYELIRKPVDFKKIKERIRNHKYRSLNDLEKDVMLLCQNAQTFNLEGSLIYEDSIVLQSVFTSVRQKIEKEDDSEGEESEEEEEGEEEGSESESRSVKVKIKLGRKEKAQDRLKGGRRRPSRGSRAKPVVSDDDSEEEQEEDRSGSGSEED

SMILES | Dmax (SMARCA2 [1]) [%] | DC50 (SMARCA2 [1]) [nM] | Dmax (SMARCA4) [%] | DC50 (SMARCA4) [nM] | Dmax (SMARCA2 [2]) [%] | DC50 (SMARCA2 [2]) [nM] | SMARCA2 WB MV411 degradation 24 h: Average Dmax % (SMARCA2 [1]) | SMARCA4 WB MV411 degradation 24 h: Average Dmax % (SMARCA4) | SMARCA2 MSD A549 degradation 24 h: Average Dmax % (SMARCA2 [2])
Cc1ncsc1-c1ccc(CNC(=O)[C@@H]2C[C@@H](O)CN2C(=O)[C@@H](NC(=O)[C@H]2CC[C@H](CCN3CCC(n4cc(-c5cc(-c6ccccc6O)nnc5N)cn4)CC3)CC2)C(C)(C)C)cc1 [I-399] | > 90 | < 100 | 50 to 70 | 100 to 500 | > 90 | < 100 |  |  | 
Cc1ncsc1-c1ccc(CNC(=O)[C@@H]2C[C@@H](O)CN2C(=O)[C@@H](NC(=O)[C@H]2CC[C@H](CCCN3CCC(n4cc(-c5cc(-c6ccccc6O)nnc5N)cn4)CC3)CC2)C(C)(C)C)cc1 [I-401] | > 90 | < 100 | 70 to 90 | 100 to 500 | > 90 | 100 to 500 |  |  | 
Cc1ncsc1-c1ccc(CNC(=O)[C@@H]2C[C@@H](O)CN2C(=O)[C@@H](NC(=O)[C@H]2CC[C@H](c3cnc(N4C5CCC4CN(c4cc(-c6ccccc6O)nnc4N)C5)nc3)CC2)C(C)(C)C)c(C(F)(F)F)c1 [I-404] | > 90 | < 100 | 70 to 90 | 100 to 500 | > 90 | 100 to 500 |  |  | 
Cc1ncsc1-c1ccc(CNC(=O)[C@@H]2C[C@@H](O)CN2C(=O)[C@@H](NC(=O)[C@H]2CC[C@H](c3cnc(N4C5CCC4CN(c4cc(-c6ccccc6O)nnc4N)C5)nc3)CC2)C(C)(C)C)c(OC(F)(F)F)c1 [I-405] | > 90 | < 100 | > 90 | 100 to 500 | > 90 | < 100 |  |  | 
Cc1ncsc1-c1ccc(CNC(=O)[C@@H]2C[C@@H](O)CN2C(=O)[C@@H](NC(=O)[C@@H]2CC=C(c3cnc(N4C5CCC4CN(c4cc(-c6ccccc6O)nnc4N)C5)nc3)CC2)C(C)(C)C)cc1 [I-406] | > 90 | < 100 | 70 to 90 | < 100 | > 90 | < 100 |  |  | 
Cc1ncsc1-c1ccc(CNC(=O)[C@@H]2C[C@@H](O)CN2C(=O)[C@@H](NC(=O)[C@H]2CC=C(c3cnc(N4C5CCC4CN(c4cc(-c6ccccc6O)nnc4N)C5)nc3)CC2)C(C)(C)C)cc1 [I-407] | > 90 | < 100 | > 90 | < 100 | > 90 | 100 to 500 |  |  | 
CC(=O)O[C@@H]1C[C@@H](C(=O)NCc2ccc(-c3scnc3C)cc2)N(C(=O)[C@@H](NC(=O)[C@H]2CC[C@H](c3cnc(N4C5CCC4CN(c4cc(-c6ccccc6O)nnc4N)C5)nc3)CC2)C(C)(C)C)C1 [I-408] | > 90 | < 100 | > 90 | < 100 | > 90 | < 100 |  |  | 
Cc1ncsc1-c1ccc(CNC(=O)[C@@H]2C[C@@H](OC(=O)[C@H](C)N)CN2C(=O)[C@@H](NC(=O)[C@H]2CC[C@H](c3cnc(N4C5CCC4CN(c4cc(-c6ccccc6O)nnc4N)C5)nc3)CC2)C(C)(C)C)cc1 [I-409] | > 90 | < 100 | > 90 | < 100 | > 90 | < 100 |  |  | 
Cc1ncsc1-c1ccc(CNC(=O)[C@@H]2C[C@@H](O)CN2C(=O)[C@@H](NC(=O)C2CCC(c3cnc(N4C5CCC4CN(c4cc(-c6ccccc6O)nnc4N)C5)nc3)CC2C)C(C)(C)C)cc1 (some centres unmarked) [I-411] | > 90 | < 100 | > 90 | < 100 | 50 to 70 | 501 to 1000 |  |  | 
Cc1ncsc1-c1ccc(CNC(=O)[C@@H]2C[C@@H](O)CN2C(=O)[C@@H](NC(=O)[C@H]2CC[C@H](c3cnc(N4C5CCC4CN(c4cc(-c6ccccc6O)nnc4N)C5)nc3C)CC2)C(C)(C)C)cc1 [I-412] | > 90 | < 100 | > 90 | < 100 | > 90 | < 100 |  |  | 
Cc1ncsc1-c1ccc(CNC(=O)[C@@H]2C[C@@H](O)CN2C(=O)[C@@H](NC(=O)[C@H]2CC3(C2)C[C@H](c2cnc(N4C5CCC4CN(c4cc(-c6ccccc6O)nnc4N)C5)nc2)C3)C(C)(C)C)c(C(F)(F)F)c1 (some centres unmarked) [I-419] | > 90 | < 100 | 70 to 90 | 100 to 500 | > 90 | 100 to 500 |  |  | 
Cc1ncsc1-c1ccc(CNC(=O)[C@@H]2C[C@@H](O)CN2C(=O)[C@@H](NC(=O)[C@H]2C[C@]3(C2)C[C@H](c2cnc(N4C5CCC4CN(c4cc(-c6ccccc6O)nnc4N)C5)nc2)C3)C(C)(C)C)c(C(F)(F)F)c1 (some centres unmarked) [I-420] |  | < 100 |  | 100 to 500 |  | 100 to 500 | B (B (>70-90% degradation)) | D (D (<50% degradation)) | A (A (>90% degradation))
Cc1ncsc1-c1ccc(CNC(=O)[C@@H]2C[C@@H](O)CN2C(=O)[C@@H](NC(=O)[C@H]2CC3(C2)C[C@H](N2CCC(c4cnc(N5C6CCC5CN(c5cc(-c7ccccc7O)nnc5N)C6)nc4)CC2)C3)C(C)(C)C)cc1 (some centres unmarked) [I-423] | > 90 | < 100 | 50 to 70 | 100 to 500 | > 90 | < 100 |  |  | 
Cc1ncsc1-c1ccc(CNC(=O)[C@@H]2C[C@@H](O)CN2C(=O)[C@@H](NC(=O)[C@H]2CC3(C2)C[C@H](N2CCC(c4cnc(N5C6CCC5CN(c5cc(-c7ccccc7O)nnc5N)C6)nc4)CC2)C3)C(C)(C)C)cc1 (some centres unmarked) [I-424] |  | < 100 |  | > 1000 |  | < 100 | A (A (>90% degradation)) | D (D (<50% degradation)) | A (A (>90% degradation))
Cc1ncsc1-c1ccc(CNC(=O)[C@@H]2C[C@@H](O)CN2C(=O)[C@@H](NC(=O)C23CCC(CN4CCC(c5cnc(N6C7CCC6CN(c6cc(-c8ccccc8O)nnc6N)C7)nc5)CC4)(CC2)CC3)C(C)(C)C)cc1 [I-425] | > 90 | < 100 | 70 to 90 | 100 to 500 | > 90 | < 100 |  |  | 
Cc1ncsc1-c1ccc(CNC(=O)[C@@H]2C[C@@H](O)CN2C(=O)[C@@H](NC(=O)[C@H]2C[C@]3(C[C@H](CN4CCC(c5cnc(N6C7CCC6CN(c6cc(-c8ccccc8O)nnc6N)C7)nc5)CC4)C3)C2)C(C)(C)C)cc1 (some centres unmarked) [I-427] | > 90 | < 100 | < 50 | 100 to 500 |  | < 100 |  |  | 
Cc1ncsc1-c1ccc(CNC(=O)[C@@H]2C[C@@H](O)CN2C(=O)[C@@H](NC(=O)C23CCC(CN4CCC(n5cc(-c6cc(-c7ccccc7O)nnc6N)cn5)CC4)(CC2)CC3)C(C)(C)C)cc1 [I-428] | > 90 | < 100 | 70 to 90 | 100 to 500 | > 90 | 100 to 500 |  |  | 
CC(=O)Nc1cc(-c2scnc2C)ccc1CNC(=O)[C@@H]1C[C@@H](O)CN1C(=O)[C@@H](NC(=O)[C@H]1CC[C@H](c2cnc(N3C4CCC3CN(c3cc(-c5ccccc5O)nnc3N)C4)nc2)CC1)C(C)(C)C [I-430, (2S,4R)—N-(2-acetamido-4-(4-methylthiazol-5-yl)benzyl)-1-((2S)-2-((1r,4S)-4-(2-(3-(3-amino-6-(2-hydroxyphenyl)pyridazin-4-yl)-3,8-diazabicyclo [3.2.1]octan-8-yl)pyrimidin-5-yl)cyclohexanecarboxamido)-3,3-dimethylbutanoyl)-4-hydroxypyrrolidine-2-carboxamide] | > 90 | < 100 | > 90 | < 100 | > 90 | < 100 |  |  | 
